ChEMBL document CHEMBL1201862, “PubChem BioAssay data set” (2004)
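Assay format: 96-well plates, 48-hour exposure. GI50: concentration for 50% inhibition of growth.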 The source made the active and inactive calls. No stated cut-off is given here; in the data, active = GI50 up to about 1.1 µM and inactive = higher.

Tests used:
Experiment in all cases: NCI tumour cell line growth inhibition, 48 h
KM-20L2 = system: KM-20L2
DLD-1 = system: DLD-1
OVCAR-4 = system: OVCAR-4
SF-268 = system: SF-268
NCI-H226 = system: NCI-H226
SK-MEL-2 = system: SK-MEL-2
RXF 393 = system: RXF 393
HCC 2998 = system: HCC 2998
SN12C = system: SN12C
SR = system: SR
RXF 631 = system: RXF 631
LXFL 529 = system: LXFL 529
EKVX = system: EKVX
UACC-257 = system: UACC-257
DMS-273 = system: DMS-273
UACC-62 = system: UACC-62
NCI-H522 = system: NCI-H522
KM12 = system: KM12
HT-29 = system: HT-29
TK-10 = system: TK-10
OVCAR-5 = system: OVCAR-5
SNB-19 = system: SNB-19
A498 = system: A498
SF-295 = system: SF-295
HOP-62 = system: HOP-62
NCI-H460 = system: NCI-H460
SK-MEL-5 = system: SK-MEL-5
ACHN = system: ACHN
U-251 = system: U-251
A549 = system: A549
NCI-H23 = system: NCI-H23
MOLT-4 = system: MOLT-4
SK-MEL-28 = system: SK-MEL-28
XF498 = system: XF498
CCRF-CEM = system: CCRF-CEM
OVCAR-8 = system: OVCAR-8
CAKI-1 = system: CAKI-1
786-0 = system: 786-0
SW-620 = system: SW-620
Malme-3M = system: Malme-3M
HCT-116 = system: HCT-116
UO-31 = system: UO-31
SK-OV-3 = system: SK-OV-3
K562 = system: K562
HL-60 = system: HL-60
SF-539 = system: SF-539
DMS-114 = system: DMS-114
SNB-75 = system: SNB-75
M14 = system: M14
HOP-92 = system: HOP-92
IGROV-1 = system: IGROV-1
SNB-78 = system: SNB-78
M19-MEL = system: M19-MEL
HCT-15 = system: HCT-15
COLO 205 = system: COLO 205
OVCAR-3 = system: OVCAR-3
RPMI-8226 = system: RPMI-8226
HOP-18 = system: HOP-18
LOX IMVI = system: LOX IMVI

c1ccc2c(c1)[nH]c1c2nc2ncccn21
GI50 (KM-20L2): > 100 µM (inactive) | GI50 (DLD-1): > 100 µM (inactive) | GI50 (OVCAR-4): > 100 µM (inactive) | GI50 (SF-268): > 100 µM (inactive) | GI50 (NCI-H226): > 100 µM (inactive) | GI50 (SK-MEL-2): > 100 µM (inactive) | GI50 (RXF 393): > 100 µM (inactive) | GI50 (HCC 2998): > 100 µM (inactive) | GI50 (SN12C): > 100 µM (inactive) | GI50 (SR): > 100 µM (inactive) | GI50 (RXF 631): > 100 µM (inactive) | GI50 (LXFL 529): > 100 µM (inactive) | GI50 (EKVX): > 100 µM (inactive) | GI50 (UACC-257): > 100 µM (inactive) | GI50 (DMS-273): > 100 µM (inactive) | GI50 (UACC-62): > 100 µM (inactive) | GI50 (NCI-H522): > 100 µM (inactive) | GI50 (KM12): > 100 µM (inactive) | GI50 (HT-29): > 100 µM (inactive) | GI50 (TK-10): > 100 µM (inactive) | GI50 (OVCAR-5): > 100 µM (inactive) | GI50 (SNB-19): > 100 µM (inactive) | GI50 (A498): > 100 µM (inactive) | GI50 (SF-295): > 100 µM (inactive) | GI50 (HOP-62): > 100 µM (inactive) | GI50 (NCI-H460): > 100 µM (inactive) | GI50 (SK-MEL-5): > 100 µM (inactive) | GI50 (ACHN): > 100 µM (inactive) | GI50 (U-251): > 100 µM (inactive) | GI50 (A549): > 100 µM (inactive) | GI50 (NCI-H23): > 100 µM (inactive) | GI50 (MOLT-4): > 100 µM (inactive) | GI50 (SK-MEL-28): > 100 µM (inactive) | GI50 (XF498): > 100 µM (inactive) | GI50 (CCRF-CEM): > 100 µM (inactive) | GI50 (OVCAR-8): > 100 µM (inactive) | GI50 (CAKI-1): > 100 µM (inactive) | GI50 (786-0): > 100 µM (inactive) | GI50 (SW-620): > 100 µM (inactive) | GI50 (Malme-3M): > 100 µM (inactive) | GI50 (HCT-116): > 100 µM (inactive) | GI50 (UO-31): > 100 µM (inactive) | GI50 (SK-OV-3): > 100 µM (inactive) | GI50 (K562): > 100 µM (inactive) | GI50 (HL-60): > 10 µM (inactive) | GI50 (SF-539): > 100 µM (inactive) | GI50 (DMS-114): > 100 µM (inactive) | GI50 (SNB-75): > 100 µM (inactive) | GI50 (M14): > 100 µM (inactive) | GI50 (HOP-92): > 100 µM (inactive) | GI50 (IGROV-1): > 100 µM (inactive) | GI50 (SNB-78): > 100 µM (inactive) | GI50 (M19-MEL): > 100 µM (inactive)

COc1cc(C(=O)C/C(CCC(=O)Nc2ccccc2[N+](=O)[O-])=N\NC(=O)CC#N)ccc1O
GI50 (KM-20L2): > 100 µM (inactive) | GI50 (DLD-1): > 100 µM (inactive) | GI50 (OVCAR-4): > 100 µM (inactive) | GI50 (HCT-15): > 100 µM | GI50 (SF-268): > 100 µM (inactive) | GI50 (NCI-H226): > 100 µM (inactive) | GI50 (SK-MEL-2): > 100 µM (inactive) | GI50 (COLO 205): > 100 µM (inactive) | GI50 (RXF 393): > 100 µM (inactive) | GI50 (HCC 2998): > 100 µM (inactive) | GI50 (SN12C): > 100 µM (inactive) | GI50 (OVCAR-3): > 100 µM (inactive) | GI50 (RXF 631): > 100 µM (inactive) | GI50 (LXFL 529): > 100 µM (inactive) | GI50 (EKVX): > 100 µM (inactive) | GI50 (UACC-257): > 100 µM (inactive) | GI50 (DMS-273): > 100 µM (inactive) | GI50 (UACC-62): > 100 µM (inactive) | GI50 (NCI-H522): > 100 µM (inactive) | GI50 (KM12): > 100 µM (inactive) | GI50 (HT-29): > 100 µM (inactive) | GI50 (TK-10): > 100 µM (inactive) | GI50 (OVCAR-5): > 100 µM (inactive) | GI50 (SNB-19): > 100 µM (inactive) | GI50 (RPMI-8226): > 100 µM (inactive) | GI50 (A498): 40.7 µM (inactive) | GI50 (SF-295): > 100 µM (inactive) | GI50 (HOP-62): > 100 µM (inactive) | GI50 (NCI-H460): > 100 µM (inactive) | GI50 (SK-MEL-5): > 100 µM (inactive) | GI50 (ACHN): > 100 µM (inactive) | GI50 (A549): > 100 µM (inactive) | GI50 (NCI-H23): > 100 µM (inactive) | GI50 (HOP-18): > 100 µM (inactive) | GI50 (MOLT-4): > 100 µM (inactive) | GI50 (LOX IMVI): > 100 µM (inactive) | GI50 (SK-MEL-28): > 100 µM (inactive) | GI50 (XF498): > 100 µM (inactive) | GI50 (CCRF-CEM): > 100 µM (inactive) | GI50 (OVCAR-8): > 100 µM (inactive) | GI50 (CAKI-1): > 100 µM (inactive) | GI50 (786-0): > 100 µM (inactive) | GI50 (SW-620): > 100 µM (inactive) | GI50 (Malme-3M): > 100 µM (inactive) | GI50 (UO-31): > 100 µM (inactive) | GI50 (SK-OV-3): > 100 µM (inactive) | GI50 (K562): > 100 µM (inactive) | GI50 (HL-60): > 100 µM (inactive) | GI50 (SF-539): > 100 µM (inactive) | GI50 (SNB-75): 49.1 µM (inactive) | GI50 (M14): > 100 µM (inactive) | GI50 (IGROV-1): > 100 µM (inactive) | GI50 (M19-MEL): > 100 µM (inactive)

Cc1ccc(NC(=O)CCC(=O)C(C#N)c2ccccc2)cc1C (centres undefined)
GI50 (KM-20L2): > 100 µM (inactive) | GI50 (DLD-1): > 100 µM (inactive) | GI50 (OVCAR-4): > 100 µM (inactive) | GI50 (HCT-15): > 100 µM | GI50 (SF-268): > 100 µM (inactive) | GI50 (NCI-H226): > 100 µM (inactive) | GI50 (SK-MEL-2): > 100 µM (inactive) | GI50 (COLO 205): > 100 µM (inactive) | GI50 (HCC 2998): > 100 µM (inactive) | GI50 (SN12C): > 100 µM (inactive) | GI50 (OVCAR-3): > 100 µM (inactive) | GI50 (RXF 631): > 100 µM (inactive) | GI50 (LXFL 529): > 100 µM (inactive) | GI50 (EKVX): > 100 µM (inactive) | GI50 (UACC-257): > 100 µM (inactive) | GI50 (DMS-273): > 100 µM (inactive) | GI50 (UACC-62): > 100 µM (inactive) | GI50 (NCI-H522): > 100 µM (inactive) | GI50 (KM12): > 100 µM (inactive) | GI50 (HT-29): > 100 µM (inactive) | GI50 (TK-10): > 100 µM (inactive) | GI50 (OVCAR-5): > 100 µM (inactive) | GI50 (SNB-19): > 100 µM (inactive) | GI50 (RPMI-8226): > 100 µM (inactive) | GI50 (A498): > 100 µM (inactive) | GI50 (SF-295): > 100 µM (inactive) | GI50 (NCI-H460): > 100 µM (inactive) | GI50 (SK-MEL-5): > 100 µM (inactive) | GI50 (ACHN): > 100 µM (inactive) | GI50 (U-251): > 100 µM (inactive) | GI50 (A549): > 100 µM (inactive) | GI50 (NCI-H23): > 100 µM (inactive) | GI50 (HOP-18): > 100 µM (inactive) | GI50 (MOLT-4): > 100 µM (inactive) | GI50 (LOX IMVI): > 100 µM (inactive) | GI50 (XF498): > 100 µM (inactive) | GI50 (CCRF-CEM): > 100 µM (inactive) | GI50 (OVCAR-8): > 100 µM (inactive) | GI50 (CAKI-1): > 100 µM (inactive) | GI50 (786-0): > 100 µM (inactive) | GI50 (SW-620): > 100 µM (inactive) | GI50 (Malme-3M): > 100 µM (inactive) | GI50 (HCT-116): > 100 µM (inactive) | GI50 (UO-31): > 100 µM (inactive) | GI50 (SK-OV-3): > 100 µM (inactive) | GI50 (K562): > 100 µM (inactive) | GI50 (HL-60): > 100 µM (inactive) | GI50 (SF-539): > 100 µM (inactive) | GI50 (DMS-114): > 100 µM (inactive) | GI50 (M14): > 100 µM (inactive) | GI50 (HOP-92): > 100 µM (inactive) | GI50 (IGROV-1): > 100 µM (inactive) | GI50 (SNB-78): > 100 µM (inactive)
